These results are taken from patent EP0112633A2, “Novel 5-thiaprostaglandin, process for production thereof, and pharmaceutical use thereof” (TEIJIN LIMITED, priority 1982, dated 1984).

A word on the IC50: it is the point on the concentration scale where inhibition reaches its midpoint. A word on the ED50: it is the dose at which the effect has come halfway, by size or by number of responders.

One experiment relates to L1210 leukemia cells. The experiment is described as follows: Inhibition of proliferation of L1210 leukemia cells (trypan blue count of surviving cells after 4 days). Type of experiment: cell-based. The settings on record: RPMI medium with 10% FCS, 37°C, ratio of proliferation against 0.1% ethanol control. The procedure: Measurement of the action of inhibiting proliferation of […] leukemia cell:-
L1210 leukemia cells were added to an RPMI medium containing 10% FCS (fetal calf serum), and the concentration of the cells was adjusted to 1 × 10^5 cells/ml. […] Prior to use, the final concentration of the ethanol solution was adjusted to less than 0.1%, and it was added to the culture medium. The culture medium was then maintained at 37°C in a stationary condition for 4 days. After the cultivation, the number of surviving cells was measured by dyeing with trypan flue. As a control, 0.1% ethanol was used. A dose-reaction curve was plotted from the ratios of proliferation against the control, and IC50 was determined.

The test system of another experiment is platelet aggregation. The experiment is described as follows: In vitro inhibition of ADP-induced platelet aggregation in platelet-rich plasma (aggregometer). It counts as cell-based, Japanese domestic white male rabbits. The procedure:
in vitro inhibitory activity of platelet aggregation:-
The in vitro platelet aggregation imhibiting activity of the compounds of the invention were examined by using rabbits. Blood was withdrawn from the ear vein of Japanese domestic white male rabbits weighing 2.5 to 3.5 kg. A mixture of a 3.8% trisodium citrate solution and the blood in a ratio of 1:9 was centrifuged at a speed of 1000 rpm for 10 minutes. The upper layer was separated as platelet- rich plasma (PRP). The lower layer was further centrifuged at a speed of 28000 rpm for 10 minutes. The upper layer was separated as platelet-poor plasma (PPP). The number of platelets was adjusted to 6 x 10^5/µℓ to 7 x 10^5/µℓ by diluting the PRP with PPP. 25 microliters of the test compounds prepared as shown below was added in an amount of 25 to 250 microliters of PRP after the adjustment, and the mixture was pre-incubated at 37°C for 2 minutes, and then 10 µM (final) of ADP was added. By using an aggregometer, changes in transmission were recorded.
The drug was dissolved in ethanol to a concentration of 10 mg/mt, and successively diluted with phosphate buffer (pH 7.4) prior to use.
The rate of inhibition of platelet aggregation was determined from the following equation. [formula] • T: the transmittance of the system containing the phosphate buffer, • T : the transmittance of the system to which the test drug was added.
The minumum concentration of the drug which inhibited more than 50% of platelet aggregation was shown as an IC50 value.

A further experiment deals with ethanol ulcer. The experiment can be described thus: Ethanol ulcer test (inhibitory activity on ethanol ulcer). It counts as in vivo, SD-strain rats. The conditions noted are these: rats; for Ulcer index (mm): 75% ethanol 30 min later, stomach examined 1 h later; for ED50: p.o., ethanol ulcer. The procedure: Measurement of inhibitry activity on ethanol ulcer:- An ethanol ulcer test was carried out by the following processure. SD-strain rats (body weight 200 to 220 g; 7 weeks old) were fasted for 24 hours, and a solution of each of the test compounds in physiological saline buffered with phosphate buffer at pH 7.5 was orally administered. Thirty minutes after the administration, 75% ethanol was orally administered in a dose of […]. One hour later, the abdomen was incised to isolate the stomach. […] The total of these lengths was defined as the ulcer index. A control group was given physiological saline buffered with phosphate buffer (pH 7.5) and 75% ethanol.

The test system of the next experiment is blood pressure. The experiment is described as follows: Hypotensive activity by intravenous injection under anesthesia. The settings on record: anesthetized rats, i.v.; dosage which caused a 20% lowering of the mean blood pressure. Type of experiment: in vivo, Male wister rats. The procedure: Measurement of the hypotensive activity:-
The actions of the 5-thiaprostaglandin of the invention on the blood pressure was examined by intravenous injection under anesthesia.
Male wister rats weighing about 250 g were used. Urethane (500 mg/kg) and a-chloralose (100 mg/kg) were intraperitoneally administered to the rats. The rats were anesthetized and fixed in place.
Each of the test compounds was dissolved in a small amount of ethanol and diluted with physiological saline to adjust the final ethanol concentration to not more than 5%. The solution was intravenously injected into the rats through a catheter inserted into the femoral vein.
The blood pressure of the rats was measured by a pressure transducer through a catheter inserted into the carotid artery of the rats.
The action of the test compound on the blood pressure was expressed as the dosage (ED20, u/kg) of the test compound which caused a 20% lowering of the mean blood pressure before administration of the compound.

In brackets after ≈: the same amount, converted by molar mass. Read-outs that look alike come from different tables or passages of the source.

As for 5-thiaprostaglandin E1 methyl ester, the IC50 with L1210 leukemia cells worked out at 0.6 µg/mL.
On to “17(S),20-dimethyl-5-thiaprostaglandin E1 methyl ester”, for which the IC50 in the experiment with platelet aggregation (rabbit PRP, 10 µM (final) ADP, minimum concentration which inhibited more than 50% of platelet aggregation) was 0.33 µg/mL. The “Ulcer inhibiting rate (%)” value came to 46.8% in the experiment on ethanol ulcer (p.o. 0.3 µg/kg), 97.7% in the experiment with ethanol ulcer (p.o. 1 µg/kg) and 100% with ethanol ulcer (p.o. 3 µg/kg). Further, the “Ulcer index (mm)” value in the experiment on ethanol ulcer (p.o. 0.3 µg/kg) is on record as 18.4 ±4.3 mm; in the experiment with ethanol ulcer (p.o. 1 µg/kg), 0.8 ±0.6 mm; in the experiment on ethanol ulcer (p.o. 3 µg/kg), 0 mm. Besides, the ED50 with ethanol ulcer is 0.35 µg/kg. In the experiment on blood pressure, the ED20 came to 2.7 µg/kg.
For `CCCCCC(O)C=CC1C=CC(=O)C1=CCSCCCC(=O)OC` (centres unmarked) [12-epimer of (7E)-Δ^7-5-thiaprostaglandin A1 methyl ester], the IC50 in the experiment on L1210 leukemia cells came to 0.3 µg/mL.
Consider `CCCC[C@@H](C)C[C@H](O)/C=C/[C@H]1[C@H](O)CC(=O)[C@@H]1CCSCCCC(=O)OC` [17(R),20-dimethyl-5-thiaprostaglandin E1 methyl ester], for which the IC50 in the experiment on platelet aggregation (Oryctolagus cuniculus, rabbit PRP, 10 µM (final) ADP, minimum concentration which inhibited more than 50% of platelet aggregation, read-out: IC50) turned out to be 0.36 µg/mL (≈ 0.868 µM).
As for `CCCCC[C@H](O)/C=C/[C@H]1C=CC(=O)/C1=C/CSCCCC(=O)OC` [(7E)-Δ^7-5-thiaprostaglandin A1 methyl ester], in the experiment on L1210 leukemia cells (Mus musculus, 96 h, read-out: IC50), the IC50 is 0.2 µg/mL.
Regarding `CCCCC[C@H](O)/C=C/[C@H]1[C@H](O)CC(=O)[C@@H]1CCCCCCC(=O)O` [Prostaglandin E1, reference compound], in the experiment with platelet aggregation (Oryctolagus cuniculus, Platelet, in vitro, ADP 10 µM (printed "ADPlOpM"), read-out: inhibiting platelet aggregation activity (IC50)), the IC50 turned out to be 0.03 µg/mL (≈ 0.0846 µM). Besides, the inhibition at 0.003 mg/kg with ethanol ulcer (Rattus norvegicus, po, p.o. 3 µg/kg, read-out: Ulcer inhibiting rate (%)) was determined as 50%. For the same molecule, the inhibition at 0.01 mg/kg in the experiment on ethanol ulcer (Rattus norvegicus, po, p.o. 10 µg/kg, read-out: Ulcer inhibiting rate (%)) came to 96.2%. The ED50 in the experiment with ethanol ulcer (Rattus norvegicus, po, read-out: ED50) turned out to be 3 µg/kg. The “Ulcer index (mm)” value came out at 17.1 ±5.5 mm in the experiment with ethanol ulcer (p.o. 3 µg/kg) and 1.3 ±0.8 mm with ethanol ulcer (p.o. 10 µg/kg).
On to “(7E)-Δ^7-5-thiaprostaglandin E1 methyl ester and its 15-epimer [A mixture of (7E)-Δ^7-5-thiaprostaglandin E1 methyl ester of its 15-epimer]”, for which, in the experiment with L1210 leukemia cells, the IC50 stood at 0.4 µg/mL.
